The target in one test is DPP9 (Homo sapiens (Human), UniProt Q86TI2). Description: DPP9 enzyme inhibition, IC50 measurement (Ala-Pro-pNA release). Type of test: biochemical. Conditions: for SI DPP9/8 / SI DPP9/DPP8: selectivity index; for SI DPP9/8: DPP8 IC50 over DPP9 IC50. How it is done: DPP4 was purified from human seminal plasma as described previously.^[3]
(§1) IC50 measurements. […] The Magellan software was used to process the data, which was then fitted using a non-linear fit model in GraFit 7. […] As a blank, the assay buffer was used instead of the enzyme. Screening measurements were carried out in duplo and IC50 values were determined in triplo with at least eight different inhibitor concentrations as described by Van Goethem et al.

For the next test, the target named is DPP8 (Homo sapiens (Human), UniProt Q6V1X1). Description: DPP8 enzyme inhibition, IC50 measurement (Ala-Pro-pNA release). Type of test: biochemical. How it is done:
as §1

The mark [1] stands for this setting: Table 3, mean ± SD (n = 3), read-out: DPP9 IC50 ± SD.
Setting [2] is: Table 3, mean ± SD (n = 3), read-out: DPP8 IC50 ± SD.
Where [3] appears, read: Table 4, standard method, read-out: IC50 DPP9.
Where [4] appears, read: Table 4, standard method, read-out: IC50 DPP8.

Data on 24 compounds can be found in patent publication US20250353833A1, “DPP9 BINDING COMPOUNDS” (UNIVERSITEIT ANTWERPEN, priority 2022, published 2025).

Where two headings read alike, the source gives them in different places.

Sequence of DPP8 (Q6V1X1 whole entry): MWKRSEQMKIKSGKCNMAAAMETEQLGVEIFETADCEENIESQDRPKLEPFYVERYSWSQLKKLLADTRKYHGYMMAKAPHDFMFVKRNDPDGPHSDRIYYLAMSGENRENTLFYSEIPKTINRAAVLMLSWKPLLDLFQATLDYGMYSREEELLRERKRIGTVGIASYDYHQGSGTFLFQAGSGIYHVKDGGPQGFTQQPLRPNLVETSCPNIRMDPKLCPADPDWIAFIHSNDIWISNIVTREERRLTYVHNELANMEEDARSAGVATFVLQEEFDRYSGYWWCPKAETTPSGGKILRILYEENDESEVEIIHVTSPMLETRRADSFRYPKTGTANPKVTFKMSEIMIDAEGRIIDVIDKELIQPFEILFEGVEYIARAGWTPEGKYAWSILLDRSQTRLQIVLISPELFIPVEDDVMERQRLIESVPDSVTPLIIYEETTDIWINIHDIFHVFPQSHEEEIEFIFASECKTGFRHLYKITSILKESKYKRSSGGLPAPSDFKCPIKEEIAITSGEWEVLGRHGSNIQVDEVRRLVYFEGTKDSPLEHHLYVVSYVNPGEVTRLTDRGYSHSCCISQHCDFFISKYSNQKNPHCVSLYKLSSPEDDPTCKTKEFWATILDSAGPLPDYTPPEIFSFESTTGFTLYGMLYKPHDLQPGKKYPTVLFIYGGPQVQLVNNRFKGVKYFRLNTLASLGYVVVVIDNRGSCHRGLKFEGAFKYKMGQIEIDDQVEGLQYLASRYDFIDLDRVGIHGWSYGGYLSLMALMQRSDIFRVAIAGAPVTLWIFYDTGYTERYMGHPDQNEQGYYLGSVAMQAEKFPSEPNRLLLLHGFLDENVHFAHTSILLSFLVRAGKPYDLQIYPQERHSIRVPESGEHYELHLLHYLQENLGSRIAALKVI
Sequence of DPP9 (Q86TI2 whole entry): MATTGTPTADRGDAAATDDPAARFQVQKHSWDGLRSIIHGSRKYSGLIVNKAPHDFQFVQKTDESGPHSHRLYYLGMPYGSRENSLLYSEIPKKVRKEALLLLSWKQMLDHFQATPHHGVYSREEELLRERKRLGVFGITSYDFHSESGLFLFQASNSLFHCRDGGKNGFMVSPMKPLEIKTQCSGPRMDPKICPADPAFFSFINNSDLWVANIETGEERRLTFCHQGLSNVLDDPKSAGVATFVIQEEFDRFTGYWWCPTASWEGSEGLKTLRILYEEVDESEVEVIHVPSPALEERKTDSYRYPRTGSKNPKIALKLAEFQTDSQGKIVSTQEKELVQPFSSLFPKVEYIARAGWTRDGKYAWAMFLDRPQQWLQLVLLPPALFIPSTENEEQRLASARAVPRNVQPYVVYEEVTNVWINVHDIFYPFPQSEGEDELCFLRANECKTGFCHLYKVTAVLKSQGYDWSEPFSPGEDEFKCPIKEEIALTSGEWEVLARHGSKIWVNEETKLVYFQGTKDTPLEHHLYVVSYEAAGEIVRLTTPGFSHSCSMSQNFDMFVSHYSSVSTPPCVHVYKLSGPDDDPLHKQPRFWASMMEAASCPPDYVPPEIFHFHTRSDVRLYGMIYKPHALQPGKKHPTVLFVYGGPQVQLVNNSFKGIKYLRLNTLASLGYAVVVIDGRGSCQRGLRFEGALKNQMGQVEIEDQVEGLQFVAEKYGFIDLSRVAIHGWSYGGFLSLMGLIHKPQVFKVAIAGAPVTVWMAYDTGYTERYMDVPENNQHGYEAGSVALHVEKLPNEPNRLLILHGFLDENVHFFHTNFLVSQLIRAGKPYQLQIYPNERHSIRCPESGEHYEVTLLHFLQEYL

Take `CC(C)(C)OC(=O)NC12CC3CC(CC(NCC(=O)N4Cc5cc(F)c(F)cc5C4)(C3)C1)C2` [Compound 49]: the IC50 – broadly, the concentration that gives 50% inhibition – is 3.4 nM on DPP9 (setting [1]) and 613 ± 154 nM at DPP8 (setting [2]). Further, the “SI DPP9/8” value on DPP9 (Table 3) was 180.3.

Turning to `O=C(O)CNC(=O)OC12CC3CC(CC(NCC(=O)N4Cc5ccc(F)cc5C4)(C3)C1)C2` [Compound 53], the figures for the IC50 at DPP9 (setting [1]) and on DPP8 (setting [2]) were 39.6 nM and 1740 ± 59.1 nM, respectively. Also, the “SI DPP9/8” value at DPP9 (Table 3) turned out to be 43.9.

As for `COc1ccc2c(c1)CN(C(=O)CNC13CC4CC(C1)CC(NC(=O)OC(C)(C)C)(C4)C3)C2` [Compound 59, tert-butyl (3-((2-(5-methoxyisoindolin-2-yl)-2-oxoethyl)amino)adamantan-1-yl)carbamate], the results for the IC50 at DPP9 (setting [1]) and on DPP8 (setting [2]) were 309 ± 60.4 nM and 5220 ± 321 nM, respectively. Besides, on DPP9 (Table 3), the “SI DPP9/8” value is given as 16.9.

In the case of `COC(=O)[C@H](Cc1c[nH]c2ccccc12)NC(=O)OC12CC3CC(CC(NCC(=O)N4Cc5ccc(F)cc5C4)(C3)C1)C2` [Compound 60, Methyl (((3-((2-(5-fluoroisoindolin-2-yl)-2-oxoethyl)amino)adamantan-1-yl)oxy)carbonyl)-L-tryptophanate], the results for the IC50 on DPP9 (setting [1]) and at DPP8 (setting [2]) were 43.8 nM and 689 ± 32.3 nM, respectively. The “SI DPP9/8” value at DPP9 (Table 3) stood at 15.7.

`COC(=O)[C@H](CCSC)NC(=O)OC12CC3CC(CC(NCC(=O)N4Cc5ccc(F)cc5C4)(C3)C1)C2` [Compound 61, Methyl (((-3-((2-(5-fluoroisoindolin-2-yl)-2-oxoethyl)amino)adamantan-1-yl)oxy)carbonyl)-L-methioninate]: the IC50 on DPP9 (setting [1]) is 46.1 nM; on DPP8 (setting [2]) it was 705 ± 76 nM. Further, the “SI DPP9/8” value at DPP9 (Table 3) was 15.3.

In the case of `COC(=O)[C@H](C)NC(=O)OC12CC3CC(CC(NCC(=O)N4Cc5ccc(F)cc5C4)(C3)C1)C2` [Compound 62, Methyl (((3-((2-(5-fluoroisoindolin-2-yl)-2-oxoethyl)amino)adamantan-1-yl)oxy)carbonyl)-L-alaninate], the figures for the half-inhibitory concentration (IC50) on DPP9 (setting [1]) and on DPP8 (setting [2]) were 93.8 ± 17.3 nM and 1290 ± 186 nM, respectively. At DPP9 (Table 3), the “SI DPP9/8” value turned out to be 13.8.

As for `CC12CC3CC(C)(C1)CC(NCC(=O)N1Cc4ccc(F)cc4C1)(C3)C2` [Compound 63, 2-((3,5-Dimethyladamantan-1-yl)amino)-1-(5-fluoroisoindolin-2-yl)ethan-1-one], the figures for the IC50 on DPP9 (setting [1]) and on DPP8 (setting [2]) were 443 ± 168 nM and 4780 ± 670 nM, respectively. Further, the “SI DPP9/8” value on DPP9 (Table 3) came out at 10.8.

With `O=C(CCCCC1SCC2NC(=O)NC21)NCCOCCOCCOCCNC(=O)NC12CC3CC(CC(NCC(=O)N4Cc5ccc(F)cc5C4)(C3)C1)C2` (stereo not drawn) [Compound 75, N-(1-((3-((2-(5-fluoroisoindolin-2-yl)-2-oxoethyl)amino)adamantan-1-yl)amino)-1-oxo-5,8,11-trioxa-2-azatridecan-13-yl)-5-(2-oxohexahydro-1H-thieno[3,4-d]imidazol-4-yl)pentanamide], the results for the IC50 at DPP9 (setting [1]) and on DPP8 (setting [2]) were 43 nM and 495 ± 72 nM, respectively. For the same compound, the “SI DPP9/8” value on DPP9 (Table 3) was 12.

In the case of `O=C1CCC(N2C(=O)c3cccc(NCCOCCOC(=O)NC45CC6CC(CC(NCC(=O)N7Cc8ccc(F)cc8C7)(C6)C4)C5)c3C2=O)C(=O)N1` (stereo not drawn) [Compound 76, 2-(2-((2-(2,6-Dioxopiperidin-3-yl)-1,3-dioxoisoindolin-4-yl)amino)ethoxy)ethyl (3-((2-(5-fluoroisoindolin-2-yl)-2-oxoethyl)amino)adamantan-1-yl)carbamate], the figures for the IC50 at DPP9 (setting [1]) and on DPP8 (setting [2]) were 1.4 nM and 8 nM, respectively. Also, the “SI DPP9/8” value at DPP9 (Table 3) is listed as 6.

As to `O=C1CCC(N2C(=O)c3cccc(NCCOCCNC(=O)NC45CC6CC(CC(NCC(=O)N7Cc8ccc(F)cc8C7)(C6)C4)C5)c3C2=O)C(=O)N1` (stereo not drawn) [Compound 77, 1-(2-(2-((2-(2,6-Dioxopiperidin-3-yl)-1,3-dioxoisoindolin-4-yl)amino)ethoxy)ethyl)-3-(3-((2-(5-fluoroisoindolin-2-yl)-2-oxoethyl)amino)adamantan-1-yl)urea], the IC50 on DPP9 (setting [1]) turned out to be 2.4 nM; at DPP8 (setting [2]), 21 nM. Also, the “SI DPP9/8” value at DPP9 (Table 3) is 9.

Turning to `O=C1CCC(N2C(=O)c3cccc(NCCOCCOCCOCCNC(=O)NC45CC6CC(CC(NCC(=O)N7Cc8ccc(F)cc8C7)(C6)C4)C5)c3C2=O)C(=O)N1` (stereo not drawn) [Compound 78, 1-(2-(2-(2-(2-((2-(2,6-Dioxopiperidin-3-yl)-1,3-dioxoisoindolin-4-yl)amino)ethoxy)ethoxy)ethoxy)ethyl)-3-(3-((2-(5-fluoroisoindolin-2-yl)-2-oxoethyl)amino)adamantan-1-yl)urea], the figures for the half-maximal inhibitory concentration (IC50) at DPP9 (setting [1]) and at DPP8 (setting [2]) were 12 nM and 79 nM, respectively. Further, the “SI DPP9/8” value at DPP9 (Table 3) was 7.

As to `Cc1ccc2c(c1)CN(C(=O)CNC13CC4CC(C1)CC(NC(=O)OC(C)(C)C)(C4)C3)C2` [Compound 84, tert-butyl ((1s,3r,5R,7S)-3-((2-(5-methylisoindolin-2-yl)-2-oxoethyl)amino)adamantan-1-yl)carbamate], the “SI DPP9/DPP8” value on DPP9 (Table 4) was 23. Also, the figures for the IC50 at DPP9 (setting [3]) and on DPP8 (setting [4]) were 208 ± 48 nM and 4710 ± 444 nM, respectively.

`CC(C)(C)NC(=O)NC12CC3CC(CC(NCC(=O)N4Cc5cc(F)c(F)cc5C4)(C3)C1)C2.Cl` [Compound 85, 1-(tert-butyl)-3-((1s,3r,5R,7S)-3-((2-(5,6-difluoroisoindolin-2-yl)-2-oxoethyl)amino)adamantan-1-yl)urea hydrochloride]: the “SI DPP9/DPP8” value on DPP9 (Table 4) was found to be 41. The figures for the IC50 at DPP9 (setting [3]) and at DPP8 (setting [4]) were 32 nM and 1330 ± 97 nM, respectively.

For the compound `CC(C)(C)CC(=O)NC12CC3CC(CC(NCC(=O)N4Cc5cc(F)c(F)cc5C4)(C3)C1)C2` [Compound 86, N-((1s,3r,5R,7S)-3-((2-(5,6-difluoroisoindolin-2-yl)-2-oxoethyl)amino)adamantan-1-yl)-3,3-dimethylbutanamide], the “SI DPP9/DPP8” value on DPP9 (Table 4) was determined as 22. Also, the half-inhibitory concentration (IC50) at DPP9 (setting [3]) came to 58 nM; at DPP8 (setting [4]) it was 1300 ± 127 nM.

Turning to `Cl.O=C(NC12CC3CC(CC(NCC(=O)N4Cc5ccc(F)cc5C4)(C3)C1)C2)c1ccc(-c2cccnc2)cc1` [Compound 88, N-((1s,3r,5R,7S)-3-((2-(5-fluoroisoindolin-2-yl)-2-oxoethyl)amino)adamantan-1-yl)-4-(pyridin-3-yl)benzamide hydrochloride], the “SI DPP9/DPP8” value at DPP9 (Table 4) was determined as 24. For the same compound, the values for the IC50 at DPP9 (setting [3]) and at DPP8 (setting [4]) were 2 nM and 51 ± 25 nM, respectively.

As for `Cl.O=C(NC12CC3CC(CC(NCC(=O)N4Cc5ccc(F)cc5C4)(C3)C1)C2)c1ccc(-c2ccccn2)cc1` [Compound 90, N-((1s,3r,5R,7S)-3-((2-(5-fluoroisoindolin-2-yl)-2-oxoethyl)amino)adamantan-1-yl)-4-(pyridin-2-yl)benzamide hydrochloride], the “SI DPP9/DPP8” value on DPP9 (Table 4) was found to be 37. Further, the IC50 turned out to be 3 nM at DPP9 (setting [3]) and 127 ± 23 nM at DPP8 (setting [4]).

Turning to `Cl.O=C(NC12CC3CC(CC(NCC(=O)N4Cc5ccc(F)cc5C4)(C3)C1)C2)c1ccc(-c2ccncc2)cc1` [Compound 91, N-((1s,3r,5R,7S)-3-((2-(5-fluoroisoindolin-2-yl)-2-oxoethyl)amino)adamantan-1-yl)-4-(pyridin-4-yl)benzamide hydrochloride], on DPP9 (Table 4), the “SI DPP9/DPP8” value was found to be 12. Moreover, the IC50 is 8 nM at DPP9 (setting [3]) and 102 ± 28 nM on DPP8 (setting [4]).

Turning to `Cl.O=C(NC12CC3CC(CC(NCC(=O)N4Cc5ccc(F)cc5C4)(C3)C1)C2)c1ccc(F)cc1` [Compound 95, 4-fluoro-N-((1s,3r,5R,7S)-3-((2-(5-fluoroisoindolin-2-yl)-2-oxoethyl)amino)adamantan-1-yl)benzamide hydrochloride], the “SI DPP9/DPP8” value on DPP9 (Table 4) was 7. In addition, the IC50 at DPP9 (setting [3]) is 42 nM; on DPP8 (setting [4]) it was 295 ± 15 nM.

For `Cl.O=C(NC12CC3CC(CC(NCC(=O)N4Cc5ccc(F)cc5C4)(C3)C1)C2)c1cccnc1` [Compound 98, N-((1s,3r,5R,7S)-3-((2-(5-fluoroisoindolin-2-yl)-2-oxoethyl)amino)adamantan-1-yl)nicotinamide hydrochloride], the “SI DPP9/DPP8” value on DPP9 (Table 4) came to 3. Further, the values for the IC50 at DPP9 (setting [3]) and at DPP8 (setting [4]) were 88 ± 23 nM and 270 ± 33 nM, respectively.

`Cc1ncsc1-c1ccc(CNC(=O)[C@@H]2C[C@@H](O)CN2C(=O)[C@@H](NC(=O)CCOCCOCCOCCC(=O)NC23CC4CC(CC(NCC(=O)N5Cc6ccc(F)cc6C5)(C4)C2)C3)C(C)(C)C)cc1` [Compound 124, (2S,4R)-1-((2S)-2-(tert-butyl)-16-((3-((2-(5-fluoroisoindolin-2-yl)-2-oxoethyl)amino)adamantan-1-yl)amino)-4,16-dioxo-7,10,13-trioxa-3-azahexadecanoyl)-4-hydroxy-N-(4-(4-methylthiazol-5-yl)benzyl)pyrrolidine-2-carboxamide]: the “SI DPP9/DPP8” value at DPP9 (Table 4) is on record as 5. Besides, the values for the IC50 on DPP9 (setting [3]) and at DPP8 (setting [4]) were 20 nM and 94 ± 25 nM, respectively.

With “Lithium (((3-((2-(5-fluoroisoindolin-2-yl)-2-oxoethyl)amino)adamantan-1-yl)oxy)carbonyl)glycine [Compound 54]”, the values for the IC50 at DPP9 (setting [1]) and on DPP8 (setting [2]) were 8.88 nM and 243 ± 46.4 nM, respectively. Also, the “SI DPP9/8” value at DPP9 (Table 3) is listed as 27.4.

In the case of “Methyl (((3-((2-(5-fluoroisoindolin-2-yl)-2-oxoethyl)amino)adamantan-1-yl)oxy)carbonyl)-L-isoleucinate [Compound 57]”, the results for the IC50 on DPP9 (setting [1]) and on DPP8 (setting [2]) were 107 nM and 2180 ± 345 nM, respectively. For the same compound, the “SI DPP9/8” value on DPP9 (Table 3) stood at 20.4.

For “N-(3-((2-(isoindolin-2-yl)-2-oxoethyl)amino)adamantan-1-yl)adamantane-1-carboxamide [Compound 43]”, the IC50 at DPP9 (setting [1]) was determined as 186 ± 53.6 nM; at DPP8 (setting [2]), 5700 ± 1100 nM. The “SI DPP9/8” value on DPP9 (Table 3) is 30.6.

Consider “N-(-3-((2-(5-fluoroisoindolin-2-yl)-2-oxoethyl)amino)adamantan-1-yl)adamantane-1-carboxamide [Compound 45]”, for which the figures for the IC50 on DPP9 (setting [1]) and at DPP8 (setting [2]) were 38 ± 10 nM and 1180 ± 138 nM, respectively. For the same compound, the “SI DPP9/8” value on DPP9 (Table 3) amounted to 31.
